The AUC is concentration integrated over time. In general, inhibition in vivo refers to the share of the control response that was lost under treatment. A word on the Cmax: it is the maximum level reached in the sampled fluid or tissue.

One compound from ChEMBL document CHEMBL3616440, “Non-basic azolotriazinone MCHR1 antagonists for the treatment of obesity: An empirical brain-exposures-driven candidate selection for in vivo efficacy studies” (Bioorg Med Chem Lett, 2015) can be followed below.

Structures are written as SMILES.

For series [1], the system named is Liver. Nature of the series: Prodrug conversion in Sprague-Dawley rat liver assessed as 6-(4-chlorophenyl)-3-(4-(2,3-dihydroxypropoxy)-3-methoxyphenyl)pyrrolo[1,2-f][1,2,4]triazin-4(3H)-one formation at 10 mg/kg, po qd at 20 hrs post dose. It counts as ADME, organism-based. The conditions noted are these: in vivo.
Series [2] relates to Rattus norvegicus. Nature of the series: AUC (0 to 8 hrs ) in Sprague-Dawley rat assessed as 6-(4-chlorophenyl)-3-(4-(2-hydroxy-2-methylpropoxy)-3-methoxyphenyl)pyrrolo[1,2-f][1,2,4]triazin-4(3H)-one level at 10 mg/kg, po qd. The conditions noted are these: in vivo. Set-up: dose 10 mg/kg, time < 8 hr, route oral. It counts as ADME, organism-based.
Series [3] deals with Rattus norvegicus. Nature of the series: Antiobesity activity in Sprague-Dawley rat assessed as body weight reduction at 3 mg/kg, po qd after 4 days relative to control. It counts as functional. Conditions: 96 h.
Series [4] has as its system Liver. Nature of the series: Prodrug conversion in Sprague-Dawley rat liver assessed as 3-(4-(6-(4-chlorophenyl)-4-oxopyrrolo[1,2-f][1,2,4]triazin-3(4H)-yl)-2-methoxyphenoxy)-2-hydroxy-2-methylpropanoic acid formation at 10 mg/kg, po qd at 20 hrs post dose. It counts as ADME, organism-based. Conditions: in vivo.
The test system of series [5] is Brain. Nature of the series: Drug concentration in Sprague-Dawley rat brain assessed as 6-(4-chlorophenyl)-3-(4-(2-hydroxy-2-methylpropoxy)-3-methoxyphenyl)pyrrolo[1,2-f][1,2,4]triazin-4(3H)-one level at 10 mg/kg, po qd at 8 hrs. It is filed as ADME, organism-based. Conditions: in vivo.
The nature of series [6]: Ratio of free drug level in brain of Sprague-Dawley rat assessed as 6-(4-chlorophenyl)-3-(4-(2-hydroxy-2-methylpropoxy)-3-methoxyphenyl)pyrrolo[1,2-f][1,2,4]triazin-4(3H)-one level at 10 mg/kg, po to Ki for rat MCHR1. The conditions noted are these: in vivo. It counts as ADME, organism-based.
Series [7] is described as follows: Cmax in Sprague-Dawley rat at 10 mg/kg, po qd after 1.5 hrs. Set-up: dose 10 mg/kg, route oral. Conditions: in vivo. It counts as ADME, organism-based.
Another series relates to Nucleic Acid. Nature of the series: Ratio of drug level in Sprague-Dawley rat brain to plasma assessed as 6-(4-chlorophenyl)-3-(4-(2-hydroxy-2-methylpropoxy)-3-methoxyphenyl)pyrrolo[1,2-f][1,2,4]triazin-4(3H)-one level at 10 mg/kg, po qd. It counts as ADME, organism-based.
For series [8], the system named is Rattus norvegicus. Nature of the series: Cmax in Sprague-Dawley rat assessed as 6-(4-chlorophenyl)-3-(4-(2-hydroxy-2-methylpropoxy)-3-methoxyphenyl)pyrrolo[1,2-f][1,2,4]triazin-4(3H)-one level at 10 mg/kg, po qd at 4 hrs. It is filed as ADME, organism-based. Set-up: dose 10 mg/kg, route oral. The conditions noted are these: in vivo.
The nature of series [9]: Ratio of free drug level in brain of Sprague-Dawley rat assessed as 6-(4-chlorophenyl)-3-(4-(2-hydroxy-2-methylpropoxy)-3-methoxyphenyl)pyrrolo[1,2-f][1,2,4]triazin-4(3H)-one level at 30 mg/kg, po to Ki for rat MCHR1. It counts as ADME, organism-based. The conditions noted are these: in vivo.
The subject of series [10] is Liver. Nature of the series: Prodrug conversion in Sprague-Dawley rat liver assessed as 6-(4-chlorophenyl)-3-(4-(2,3-dihydroxy-2-methylpropoxy)-3-methoxyphenyl)pyrrolo[1,2-f][1,2,4]triazin-4(3H)-one formation at 10 mg/kg, po qd at 20 hrs post dose. It is filed as ADME, organism-based. The conditions noted are these: in vivo.
Series [11] deals with Plasma. Nature of the series: Plasma concentration in Sprague-Dawley rat assessed as 6-(4-chlorophenyl)-3-(4-(2-hydroxy-2-methylpropoxy)-3-methoxyphenyl)pyrrolo[1,2-f][1,2,4]triazin-4(3H)-one level at 10 mg/kg, po qd at 8 hrs. It counts as ADME, organism-based. The conditions noted are these: in vivo.
Series [12] concerns Brain. Nature of the series: Drug concentration in Sprague-Dawley rat brain assessed as 6-(4-chlorophenyl)-3-(4-(2-hydroxy-2-methylpropoxy)-3-methoxyphenyl)pyrrolo[1,2-f][1,2,4]triazin-4(3H)-one level at 30 mg/kg, po qd at 20 hrs. It counts as ADME, organism-based. The conditions noted are these: in vivo, read-out: Drug uptake.
Series [13] relates to Plasma. Nature of the series: Fraction unbound in Sprague-Dawley rat plasma assessed as 6-(4-chlorophenyl)-3-(4-(2-hydroxy-2-methylpropoxy)-3-methoxyphenyl)pyrrolo[1,2-f][1,2,4]triazin-4(3H)-one level. It is filed as ADME, cell-free.
The test system of series [14] is Brain. Nature of the series: Free drug level in Sprague-Dawley rat brain assessed as 6-(4-chlorophenyl)-3-(4-(2-hydroxy-2-methylpropoxy)-3-methoxyphenyl)pyrrolo[1,2-f][1,2,4]triazin-4(3H)-one level at 30 mg/kg, po qd at 20 hrs. It counts as ADME, organism-based. Conditions: in vivo.
For series [15], the system named is Liver. Nature of the series: Prodrug conversion in Sprague-Dawley rat liver assessed as 3-(4-(6-(4-chlorophenyl)-4-oxopyrrolo[1,2-f][1,2,4]triazin-3(4H)-yl)-2-methoxyphenoxy)-2-hydroxypropanoic acid formation at 10 mg/kg, po qd at 20 hrs post dose. It is filed as ADME, organism-based. Conditions: in vivo.
Series [16] can be described thus: Ratio of free drug level in brain of Sprague-Dawley rat assessed as 6-(4-chlorophenyl)-3-(4-(2-hydroxy-2-methylpropoxy)-3-methoxyphenyl)pyrrolo[1,2-f][1,2,4]triazin-4(3H)-one level at 3 mg/kg, po to Ki for rat MCHR1. It counts as ADME, organism-based. Conditions: in vivo.
Series [17] concerns Brain. Nature of the series: Free drug level in Sprague-Dawley rat brain assessed as 6-(4-chlorophenyl)-3-(4-(2-hydroxy-2-methylpropoxy)-3-methoxyphenyl)pyrrolo[1,2-f][1,2,4]triazin-4(3H)-one level at 10 mg/kg, po qd at 20 hrs. The conditions noted are these: in vivo. It is filed as ADME, organism-based.
The test system of series [18] is Brain. Nature of the series: Drug concentration in Sprague-Dawley rat brain assessed as 6-(4-chlorophenyl)-3-(4-(2-hydroxy-2-methylpropoxy)-3-methoxyphenyl)pyrrolo[1,2-f][1,2,4]triazin-4(3H)-one level at 3 mg/kg, po qd at 20 hrs. Conditions: in vivo, read-out: Drug uptake. It is filed as ADME, organism-based.
Series [19] relates to Rattus norvegicus. Nature of the series: Antiobesity activity in Sprague-Dawley rat assessed as body weight reduction at 30 mg/kg, po qd after 4 days relative to control. Conditions: 96 h. It counts as functional.
For series [20], the system named is Brain. Nature of the series: Free drug level in Sprague-Dawley rat brain assessed as 6-(4-chlorophenyl)-3-(4-(2-hydroxy-2-methylpropoxy)-3-methoxyphenyl)pyrrolo[1,2-f][1,2,4]triazin-4(3H)-one level at 3 mg/kg, po qd at 20 hrs. It is filed as ADME, organism-based. The conditions noted are these: in vivo.
Series [21] deals with Brain. Nature of the series: Drug concentration in Sprague-Dawley rat brain assessed as 6-(4-chlorophenyl)-3-(4-(2-hydroxy-2-methylpropoxy)-3-methoxyphenyl)pyrrolo[1,2-f][1,2,4]triazin-4(3H)-one level at 10 mg/kg, po qd at 20 hrs. It is filed as ADME, organism-based. Conditions: in vivo, read-out: Drug uptake.
The nature of series [22]: AUC (0 to 8 hrs ) in Sprague-Dawley rat at 10 mg/kg, po qd. It counts as ADME, organism-based. On the set-up: time < 8 hr, dose 10 mg/kg, route oral. Conditions: in vivo.
Series [23] concerns Rattus norvegicus. Nature of the series: Antiobesity activity in Sprague-Dawley rat assessed as body weight reduction at 10 mg/kg, po qd after 4 days relative to control. The conditions noted are these: 96 h. It counts as functional.

For the compound `COc1cc(-n2cnn3cc(-c4ccc(Cl)cc4)cc3c2=O)ccc1OCC(C)(C)OC(=O)CN`, the Drug metabolism in the series on Liver [1] is 10 µM; in the series with Liver [4] it was 2.4 µM; in the series on Liver [10], 10 µM; in the series with Liver [15], 2.4 µM. Besides, the AUC in the series on Rattus norvegicus [2] was 8.2 µM·h. Also, the inhibition in vivo at 3 mg/kg with Rattus norvegicus [3] stood at 3.6%. For the same compound, the Drug uptake with Brain [5] is 4.551 µM. Also, the Ratio in [6] stood at 8.9; in [9] it was 26; in series [16], 3.5. The results for the Cmax (in [7]; with Rattus norvegicus [8]) were 5 nM and 1570 nM, respectively. Besides, the BPR in the series with Nucleic Acid is reported as 5. Besides, the concentration in the series with Plasma [11] came out at 903 nM; with Brain [12], 11700 nM; in the series on Brain [18] it was 1570 nM; in the series with Brain [21] it was 4040 nM. The Fu with Plasma [13] is 0.4%. Besides, the figures for the “Drug uptake(free)” value in the series with Brain [14], in the series with Brain [17] and in the series on Brain [20] were 47 nM, 16 nM and 6.3 nM, respectively. For the same compound, the inhibition in vivo at 30 mg/kg in the series on Rattus norvegicus [19] stood at 6.9%. For the same compound, the AUC at 8 h in series [22] was 0.015 µM·h. Further, in the series on Rattus norvegicus [23], the inhibition in vivo at 10 mg/kg came to 4.7%.
